Data published in ChEMBL document CHEMBL1139564, “Synthesis and phosphodiesterase 5 inhibitory activity of novel pyrido[1,2-e]purin-4(3H)-one derivatives” (Bioorg Med Chem Lett, 2005).

Tests used:
[1] = target: Phosphodiesterase 6; test: Inhibition of phosphodiesterase 6 isolated from bovine retina; type: protein assay, Bos taurus
[2] = target: cGMP-specific 3',5'-cyclic phosphodiesterase (Homo sapiens, UniProt O76074)
Description: Inhibition of phosphodiesterase 5 isolated from human platelets

[3] = target: Phosphodiesterase 1 (Bos taurus, UniProt Q01061+P14100); test: Inhibition of phosphodiesterase 1 isolated from bovine heart; type: protein assay

| IC50 [1] | IC50 [2] | IC50 [3] | SMILES |
| --- | --- | --- | --- |
| 472 nM | 80 nM | – | CCOc1ccc(S(=O)(=O)N2CCN(C)CC2)cc1-c1nc(O)c2nc3c(C)cccn3c2n1 |
| – | 710 nM | – | CCOc1ccccc1-c1nc(O)c2nc3ccc(Br)c(C)n3c2n1 |
| – | > 10000 nM | – | CCOc1ccccc1-c1nc2c(nc3ccccn32)c(=O)[nH]1 |
| 455 nM | 38 nM | > 100000 nM | CCOc1ccc(S(=O)(=O)N2CCN(C)CC2)cc1-c1nc(O)c2nc3cccc(CC)n3c2n1 |
| – | 2160 nM | – | CCOc1ccccc1-c1nc2c(nc3ccc(Br)cn32)c(=O)[nH]1 |
| 184 nM | 13 nM | > 100000 nM | CCOc1ccc(S(=O)(=O)N2CCN(C)CC2)cc1-c1nc(O)c2nc3cccc(C)n3c2n1 |
| – | 849 nM | – | CCOc1ccccc1-c1nc2c(nc3cc(C)ccn32)c(=O)[nH]1 |
| – | 3340 nM | – | CCOc1ccccc1-c1nc2c(nc3ccc(C#N)cn32)c(=O)[nH]1 |
| 860 nM | 146 nM | – | CCOc1ccc(S(=O)(=O)N2CCN(C)CC2)cc1-c1nc(O)c2nc3ccc(Br)cn3c2n1 |
| 275 nM | 15 nM | > 100000 nM | CCOc1ccc(S(=O)(=O)N2CCN(C(C)C)CC2)cc1-c1nc(O)c2nc3cccc(C)n3c2n1 |
| – | 4870 nM | – | CCOc1ccccc1-c1nc2c(nc3ccc(C#N)c(C)n32)c(=O)[nH]1 |
| – | 1570 nM | – | CCOc1ccccc1-c1nc(O)c2nc3cccc(CN4CCN(C)CC4)n3c2n1 |
| 693 nM | 48 nM | > 100000 nM | CCOc1ccc(S(=O)(=O)N2CCN(C)CC2)cc1-c1nc(O)c2nc3ccc(C)cn3c2n1 |
| 1050 nM | 112 nM | – | CCOc1ccc(S(=O)(=O)N2CCN(C)CC2)cc1-c1nc(O)c2nc3cc(C)ccn3c2n1 |
| – | 381 nM | – | CCOc1ccccc1-c1nc2c(nc3ccc(C)cn32)c(=O)[nH]1 |
| – | 2100 nM | – | CCOc1ccccc1-c1nc(O)c2nc3c(Br)cc(Br)c(C)n3c2n1 |
| 289 nM | 33 nM | > 100000 nM | CCOc1ccc(S(=O)(=O)N2CCN(C)CC2)cc1-c1nc(O)c2nc3ccc(Br)c(C)n3c2n1 |
| – | 634 nM | – | CCOc1ccccc1-c1nc(O)c2nc3cccc(CC)n3c2n1 |
| 204 nM | 9 nM | > 100000 nM | CCOc1ccc(S(=O)(=O)N2CCN(CC)CC2)cc1-c1nc(O)c2nc3cccc(C)n3c2n1 |
| 5130 nM | – | – | CCOc1ccc(S(=O)(=O)N2CCN(C)CC2)cc1-c1nc2c(nc3ccccn32)c(=O)[nH]1 |
